Experiment [1] deals with p-STAT5 under stimulation with IL-15 in PBMCs. Put plainly: IL-15 stimulated hPBMC p-STAT5 ELISA. The experiment is classed as cell-based. Particulars: Homo sapiens, PBMC, 45 min compound, 30 min IL-15, ELISA. The protocol:
Based on the mechanism of the JAK-STAT pathway, the cytokine IL-15 was adopted to stimulate hPBMC cells, and the downstream STAT5 phosphorylation level was taken as a detection indicator to evaluate the effect of the compound on the JAK-STAT pathway.
• 1. Seeding plate for PBMC cell counting: 90 μL of PBMCs were seeded in a 96-well plate (PBMC cell density: 80,000/well). • 2. Treatment of compound to be tested: after the cells were seeded on the plate, administration treatment was performed immediately. The drug to be tested was 5 μL/well (with final concentration of 1, 0.5, 0.1, 0.05, 0.01, and 0.005 μM), and the plate was incubated in a 37° C. incubator for 45 min. • 3. Stimulation with cytokine IL-15: the cells were stimulated with 5 μL of IL-15 and incubated at 37° C. for 30 min. • 4. Protein sample collection: the cells were collected in a centrifuge tube and centrifuged for 5 min. The supernatant was discarded after the centrifuging, and the cells were lysed with 1× Cell Extraction Buffer PTR. • 5. p-STAT5 detection: detection was conducted according to the requirements of a ELISA kit.
Experimental results: IC50 values of compounds on p-STAT5 under stimulation with IL-15 in PBMCs
For orientation: ELISA stands for enzyme-linked immunosorbent assay.

For experiment [2], the system named is collagen-induced mouse arthritis model. The experiment can be described thus: Collagen-induced mouse arthritis model (mCIA). It counts as in vivo, DBA/1J mice. Particulars: female DBA/1J CIA mice, 50 mg/kg once a day, FIG. 2; for arthritis scores: compared to the model group. The text has this: Objective of Experiment: to test the immunosuppressive activity of YZ001052 in a mCIA model. PF-06651600 was used as a positive control compound.
Complete and incomplete Freund's adjuvants were mixed with a chicken type II collagen solution in equal proportions to form an emulsifier. Except for the blank control group, on Day 0, a mixture of a complete Freund's adjuvant and the chicken type II collagen solution was subcutaneously injected into the tail roots and thigh roots of the mice, with 100 μL being injected subcutaneously at the tail root of each mouse; and 50 μL being injected subcutaneously at each of the two thigh roots of each mouse (primary immunization). On day 21, the mice were subcutaneously injected with 200 μL of a mixture of an incomplete Freund's adjuvant and the chicken type II collagen solution as a booster injection (second immunization). […] Measurement of paw thickness: the thicknesses of the left and right hind feet of the mice were measured with a vernier caliper to serve as the paw swelling degree and recorded, and the detection frequency was once every 3 days.

The target in another experiment is JAK1 (Homo sapiens, UniProt P23458). The experiment can be described thus: Kinase selectivity experiment, mobility shift assay, JAK1. The experiment is classed as biochemical. The note with it: Example 137. The protocol:
(§1) The compounds were diluted with gradients into solutions with a final concentration of 100 times in a 384-well plate. Then 250 nL was transferred to a 384 reaction plate with Echo550 for later use. […]

For a further experiment, the target named is JAK2 (Homo sapiens, UniProt O60674). The experiment can be described thus: Kinase selectivity experiment, mobility shift assay, JAK2. It counts as biochemical. Particulars: Example 137. The procedure: as §1
JAK2, sequence (O60674 whole entry, species assumed): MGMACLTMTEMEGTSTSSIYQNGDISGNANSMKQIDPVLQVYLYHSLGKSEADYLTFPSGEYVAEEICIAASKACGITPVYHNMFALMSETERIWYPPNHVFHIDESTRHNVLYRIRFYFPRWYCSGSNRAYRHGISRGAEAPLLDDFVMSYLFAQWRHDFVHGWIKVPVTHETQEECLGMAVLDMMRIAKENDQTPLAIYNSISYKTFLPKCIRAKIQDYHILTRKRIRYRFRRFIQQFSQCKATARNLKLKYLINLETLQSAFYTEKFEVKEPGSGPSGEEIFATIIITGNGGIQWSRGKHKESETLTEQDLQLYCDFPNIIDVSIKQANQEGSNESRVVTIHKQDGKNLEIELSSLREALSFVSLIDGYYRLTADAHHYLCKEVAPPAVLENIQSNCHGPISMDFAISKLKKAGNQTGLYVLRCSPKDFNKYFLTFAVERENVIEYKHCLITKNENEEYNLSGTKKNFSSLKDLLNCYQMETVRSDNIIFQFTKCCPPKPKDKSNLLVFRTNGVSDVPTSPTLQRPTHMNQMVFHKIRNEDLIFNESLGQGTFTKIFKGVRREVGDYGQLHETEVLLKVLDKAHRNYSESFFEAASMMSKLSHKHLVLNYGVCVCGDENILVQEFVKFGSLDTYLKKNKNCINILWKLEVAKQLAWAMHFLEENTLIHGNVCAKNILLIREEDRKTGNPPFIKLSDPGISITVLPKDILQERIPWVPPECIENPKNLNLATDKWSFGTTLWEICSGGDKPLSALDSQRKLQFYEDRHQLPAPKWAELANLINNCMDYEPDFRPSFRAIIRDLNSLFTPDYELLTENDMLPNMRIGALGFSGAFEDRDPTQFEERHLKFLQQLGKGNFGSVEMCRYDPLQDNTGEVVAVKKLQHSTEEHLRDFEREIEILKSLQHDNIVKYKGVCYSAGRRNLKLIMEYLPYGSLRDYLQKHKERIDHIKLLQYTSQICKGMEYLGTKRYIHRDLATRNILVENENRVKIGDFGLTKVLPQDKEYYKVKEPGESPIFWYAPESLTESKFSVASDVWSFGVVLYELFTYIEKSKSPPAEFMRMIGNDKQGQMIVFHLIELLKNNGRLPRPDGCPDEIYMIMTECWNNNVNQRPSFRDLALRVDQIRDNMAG
The target in a further experiment is TYK2 (Homo sapiens, UniProt P29597). The experiment can be described thus: Kinase selectivity experiment, mobility shift assay, TYK2. The experiment is classed as biochemical. Particulars: Example 137. The protocol:
as §1

Another experiment addresses T1, JAK3 kinase (Homo sapiens, UniProt P52333).
T1 sequence (P52333 1-1124): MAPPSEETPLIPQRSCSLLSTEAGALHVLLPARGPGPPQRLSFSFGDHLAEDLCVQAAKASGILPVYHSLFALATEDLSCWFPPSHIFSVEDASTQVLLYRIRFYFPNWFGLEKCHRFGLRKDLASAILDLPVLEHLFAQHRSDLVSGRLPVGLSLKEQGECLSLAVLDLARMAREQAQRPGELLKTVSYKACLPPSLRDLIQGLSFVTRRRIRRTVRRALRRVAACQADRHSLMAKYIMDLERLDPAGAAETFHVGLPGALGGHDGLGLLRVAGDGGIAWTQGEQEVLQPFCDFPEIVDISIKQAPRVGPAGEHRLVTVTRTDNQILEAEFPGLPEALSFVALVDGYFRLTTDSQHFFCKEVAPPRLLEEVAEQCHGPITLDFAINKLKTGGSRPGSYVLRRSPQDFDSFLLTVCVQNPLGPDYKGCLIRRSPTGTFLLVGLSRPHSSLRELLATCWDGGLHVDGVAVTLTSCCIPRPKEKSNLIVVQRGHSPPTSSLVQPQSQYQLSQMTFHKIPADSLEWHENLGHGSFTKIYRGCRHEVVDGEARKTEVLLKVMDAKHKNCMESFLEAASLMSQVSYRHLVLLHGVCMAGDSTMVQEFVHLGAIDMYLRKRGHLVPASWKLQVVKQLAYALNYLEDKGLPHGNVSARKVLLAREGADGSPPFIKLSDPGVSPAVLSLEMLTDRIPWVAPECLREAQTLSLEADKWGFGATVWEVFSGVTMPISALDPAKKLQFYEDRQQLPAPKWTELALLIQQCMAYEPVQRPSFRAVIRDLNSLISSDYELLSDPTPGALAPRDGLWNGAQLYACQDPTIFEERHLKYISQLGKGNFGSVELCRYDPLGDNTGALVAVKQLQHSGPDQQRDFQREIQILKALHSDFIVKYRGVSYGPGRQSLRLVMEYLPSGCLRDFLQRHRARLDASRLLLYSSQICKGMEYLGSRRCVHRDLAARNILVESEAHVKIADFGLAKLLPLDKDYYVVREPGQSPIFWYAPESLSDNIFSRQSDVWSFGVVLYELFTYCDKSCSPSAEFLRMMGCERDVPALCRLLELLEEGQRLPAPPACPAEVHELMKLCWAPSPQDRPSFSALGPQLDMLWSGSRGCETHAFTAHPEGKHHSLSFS
Put plainly: Mobility shift assay, in vitro JAK3 kinase inhibitory activity. It counts as biochemical. The procedure: A Mobility shift assay was adopted to detect compounds to be tested (see list below) for in vitro inhibitory activity on the enzyme activity of JAK3 kinase.
The compound was dissolved in 100% DMSO to formulate a 10 mM stock solution, which was stored in a −20° C. refrigerator with protection from light.
The compounds were diluted with gradients into solutions with a final concentration of 100 times in a 384-well plate. Then 250 nL was transferred to a 384 reaction plate with Echo550 for later use. 250 nL of 100% DMSO was added into the negative control well and the positive control well respectively. • (3) A kinase solution with a final concentration of 2.5 times was formulated with the 1× Kinase buffer. • (4) The compound wells and the positive control wells were added with 10 μL of the kinase solution with the final concentration of 2.5 times respectively; the negative control wells were added with 10 μL of the 1× Kinase buffer. • (5) The wells were centrifuged at 1,000 rpm for 30 seconds, mixed well by shaking, and then incubated at room temperature for 10 minutes. • (6) A mixed solution of ATP and Kinase substrate 22 with a final concentration of 25/15 times was formulated with a 1× Kinase buffer. • (7) The compound wells, positive control wells and negative control wells of the 384 reaction plate were respectively added with 15 μL of a mixed solution of ATP and the substrate at the final concentration of 25/15 times to start the reaction. • (8) The 384-well plate was centrifuged at 1,000 rpm for 30 seconds, mixed well by shaking, and then incubated at room temperature for 30 minutes. • (9) 30 μL of a detection termination solution was added to stop the kinase reaction, centrifuged at 1,000 rpm for 30 seconds, and mixed well by shaking. • (10) The conversion rate was read with Caliper EZ Reader.
% Inhibition=(Conversion %_max−Conversion %_sample)/(Conversion %_max−Conversion %_min)×100 (1) Calculation Equation
Among them: Conversion %_sample was the conversion rate reading of the sample; Conversion %_min was the mean value of the negative control wells, representing the conversion rate reading of the wells without enzyme activity; Conversion % max was the mean value of the positive control wells, representing the conversion rate reading of the wells without compound inhibition; and % Inhibition represented the percentage inhibition rate.
• by taking the log value of concentration as the X axis and taking the percent inhibition rate as the Y axis, a dose-response curve is fitted by adopting the log (inhibitor) vs. response-Variable slope of the analysis software GraphPad Prism 5, so as to obtain the IC50 value of each compound on the enzyme activity. The calculation equation was Y=Bottom+ (Top−Bottom)/(1+10^((Log IC50−X)*HillSlope)).

Experiment [3] deals with DSS-induced mouse inflammatory bowel disease model. Put plainly: DSS-induced mouse inflammatory bowel disease model. It counts as in vivo. Particulars: female C57BL/6 mice, 5% DSS, 50 mg/kg once a day, day 8, compared with model group, FIG. 3. The protocol:
Objective of Experiment: to test the immunosuppressive activity of YZ001052 in a DSS-induced mouse inflammatory bowel disease model. PF-06651600 was used as a positive control compound.
50 g of DSS was weighed, added with 1,000 mL of sterile water, formulated into a 5% DSS solution, and filtered with a 0.22 μm filter membrane. From day 0, the blank group was given drinking water without DSS, and the other experimental groups were given drinking water containing 5% DSS. All mice were sacrificed on day 8. After the experiment was ended, the colorectum was collected, and photographed, and its length was measured for statistical analysis.

For another experiment, the system named is SRBC mouse model. The experiment can be described thus: SRBC-induced delayed type hypersensitivity (DTH) in mice. It counts as in vivo. The note with it: male Balb/c mice, 100 mg/kg by gavage once a day, day 0 to day 6, FIG. 1. The protocol:
PF-06651600 was used as a positive control compound.
Drug preparation: the compound was weighed and added with a 0.5% CMC-Na solution to prepare a drug suspension (with an administration dose of 10 mg/mL).
Induction of delayed type hypersensitivity (DTH) and administration: 30 male Balb/c mice were weighed and randomly divided into 6 groups according to body weight, with 5 mice in each group. The experimental period lasted for 7 days in total. On day 0, the mice were subcutaneously injected with sheep red blood cells (SRBCs) for sensitization. From day 0, the mice were administrated with 100 mg/kg by gavage (once a day) until day 6. On day 6, SRBCs were injected into the right hind foot pad of the mice for excitation. On day 7 of the experiment, measurements were conducted, photographs were taken, and the experiment was ended.
Pharmacodynamic detection indicators of disease models: the detection and observation indicators were the degree of redness and swelling and detected thicknesses of paw pads of the mice in the model group as induced by SRBC. The thickness of the right paw was measured as the baseline before the SRBC injection excitation on day 6. At the end of the experiment […], the thickness of the right paw was measured again, and the difference in thickness of the paw before and after the second injection was calculated.
Statistical processing: experimental data was expressed as mean±standard deviation (Mean±SD). All data was statistically analyzed using a T-test. P<0.05 was considered to be statistically different.

In experiment [4] the test system is radiation-induced lung injury mouse model. Put plainly: Mouse model of acute radiation-induced lung injury. It counts as in vivo. Particulars: female C57BL/6 mice, 22.5 Gy whole lung irradiation, 30 mg/kg q.d, 3 weeks after modeling. The protocol: 18 female C57BL/6 mice were randomly divided into 3 groups, namely a blank control group, a group treated with irradiation alone, and a group intervened with irradiation+drug YZ001052 (30 mg/kg q.d), with 6 mice in each group.
The mice were anesthetized by intraperitoneal injection of 1% pentobarbital sodium, and were subjected to a single whole lung irradiation at 22.5 Gy, with 220 KV of X-rays by using a small animal radiation research platform (SARRP). After the irradiation was completed, the mice were fed routinely.
3 weeks after modeling, the mice were anesthetized and dissected. The lung tissue was exposed, the left lung was ligated, an open tracheotomy was performed, the lung was lavaged with cold PBS, and the bronchoalveolar lavage fluid (BALF) was collected and subjected to refrigerated centrifugation at 4° C.
The supernatant was collected, and detected for the content of the inflammatory factor TNF-α by ELISA.
The cell pellet of the alveolar lavage fluid was resuspended in 200 μL PBS and used for counting of white blood cells (WBCs).

[5] abbreviates: mobility shift assay, Example 136.

JAK1, sequence (P23458 whole entry, species assumed): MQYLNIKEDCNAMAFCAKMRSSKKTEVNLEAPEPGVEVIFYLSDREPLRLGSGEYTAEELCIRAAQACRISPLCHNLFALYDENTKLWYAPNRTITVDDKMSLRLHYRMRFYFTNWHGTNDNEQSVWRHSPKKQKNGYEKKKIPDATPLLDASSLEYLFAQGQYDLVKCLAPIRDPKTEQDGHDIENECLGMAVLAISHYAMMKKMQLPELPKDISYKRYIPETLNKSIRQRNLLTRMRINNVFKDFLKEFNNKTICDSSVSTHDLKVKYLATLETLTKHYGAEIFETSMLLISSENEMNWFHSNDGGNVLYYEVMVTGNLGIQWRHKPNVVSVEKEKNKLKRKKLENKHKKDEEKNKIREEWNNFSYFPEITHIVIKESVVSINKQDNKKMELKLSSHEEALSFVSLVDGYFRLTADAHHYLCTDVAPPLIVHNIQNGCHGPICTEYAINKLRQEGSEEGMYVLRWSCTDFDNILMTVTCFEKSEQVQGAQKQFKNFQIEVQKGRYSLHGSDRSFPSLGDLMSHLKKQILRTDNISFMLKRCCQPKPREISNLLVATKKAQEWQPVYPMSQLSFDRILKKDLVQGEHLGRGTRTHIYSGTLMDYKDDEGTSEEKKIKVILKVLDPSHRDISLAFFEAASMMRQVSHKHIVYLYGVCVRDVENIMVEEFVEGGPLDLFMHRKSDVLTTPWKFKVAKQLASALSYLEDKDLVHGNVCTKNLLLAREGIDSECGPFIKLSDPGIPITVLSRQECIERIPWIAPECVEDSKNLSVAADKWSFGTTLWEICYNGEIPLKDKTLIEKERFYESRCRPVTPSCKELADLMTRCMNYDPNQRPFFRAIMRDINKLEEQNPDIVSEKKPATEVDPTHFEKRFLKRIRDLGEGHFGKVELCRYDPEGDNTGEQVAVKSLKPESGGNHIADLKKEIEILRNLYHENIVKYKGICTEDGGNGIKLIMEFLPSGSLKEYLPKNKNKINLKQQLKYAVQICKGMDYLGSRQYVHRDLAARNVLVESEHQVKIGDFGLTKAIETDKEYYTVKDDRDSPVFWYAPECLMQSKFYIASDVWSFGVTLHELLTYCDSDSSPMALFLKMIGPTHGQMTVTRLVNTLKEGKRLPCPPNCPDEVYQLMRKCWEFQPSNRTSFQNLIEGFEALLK
TYK2, sequence (P29597 whole entry, species assumed): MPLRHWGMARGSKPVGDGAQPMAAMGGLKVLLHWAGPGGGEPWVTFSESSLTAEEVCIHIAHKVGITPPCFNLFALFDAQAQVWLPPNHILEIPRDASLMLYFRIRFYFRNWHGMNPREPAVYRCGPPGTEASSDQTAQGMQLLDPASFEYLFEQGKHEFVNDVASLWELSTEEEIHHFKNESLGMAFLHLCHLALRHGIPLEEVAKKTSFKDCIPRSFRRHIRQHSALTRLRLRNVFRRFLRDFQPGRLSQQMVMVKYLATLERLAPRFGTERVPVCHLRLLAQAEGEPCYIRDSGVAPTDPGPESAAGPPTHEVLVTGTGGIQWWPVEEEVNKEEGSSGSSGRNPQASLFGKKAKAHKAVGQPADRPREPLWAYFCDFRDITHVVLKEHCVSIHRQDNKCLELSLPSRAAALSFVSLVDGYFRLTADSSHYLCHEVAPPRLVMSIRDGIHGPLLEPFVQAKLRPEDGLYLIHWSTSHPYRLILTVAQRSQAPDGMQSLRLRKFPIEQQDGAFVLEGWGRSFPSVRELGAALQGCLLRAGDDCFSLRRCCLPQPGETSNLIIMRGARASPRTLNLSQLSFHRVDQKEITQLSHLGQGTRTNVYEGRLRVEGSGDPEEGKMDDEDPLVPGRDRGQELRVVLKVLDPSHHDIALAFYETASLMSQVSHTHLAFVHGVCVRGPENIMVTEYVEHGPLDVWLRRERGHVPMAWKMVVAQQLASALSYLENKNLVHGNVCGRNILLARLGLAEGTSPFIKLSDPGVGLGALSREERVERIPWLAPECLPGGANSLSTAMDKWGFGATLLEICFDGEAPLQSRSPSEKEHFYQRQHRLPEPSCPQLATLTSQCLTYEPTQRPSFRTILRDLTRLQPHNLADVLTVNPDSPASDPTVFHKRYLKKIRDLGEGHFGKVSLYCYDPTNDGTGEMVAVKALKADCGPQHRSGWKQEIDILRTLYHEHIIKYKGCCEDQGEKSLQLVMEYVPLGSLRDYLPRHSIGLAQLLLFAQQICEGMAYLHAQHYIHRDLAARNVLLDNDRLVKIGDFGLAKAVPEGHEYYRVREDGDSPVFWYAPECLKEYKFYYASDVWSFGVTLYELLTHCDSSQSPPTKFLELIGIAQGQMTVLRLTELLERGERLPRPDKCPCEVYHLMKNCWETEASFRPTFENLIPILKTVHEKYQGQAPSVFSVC

For `C=CC(=O)N1C[C@H](Nc2ncnc3[nH]ccc23)CC[C@@H]1C` [PF-06651600, reference compound], inhibition in [1] was half-maximal at 85 nM (IC50). Further, in experiment [2], the “swelling of the paws” value was “improved to varying degrees” and the arthritis scores entry was “significantly reduced”.
For `C=CC(=O)N1Cc2c(-c3ccnc4[nH]ccc34)cnn2C[C@H]1C` [YZ001001], the IC50 at JAK1, at JAK2 and at TYK2 was more than 10000 nM each time.
On to `C[C@@H]1Cn2ncc(-c3ccnc4[nH]ccc34)c2CN1C(=O)/C=C/CN(C)C` [YZ001005], for which the half-inhibitory concentration (IC50) (in general, the point on the concentration scale where inhibition reaches its midpoint) on JAK3 kinase (selectivity table, Example 137) is 16 nM; on JAK1, more than 10000 nM; on JAK2, more than 10000 nM; on TYK2, more than 10000 nM.
For `C=CC(=O)N1CCc2c(c(-c3ccnc4[nH]ccc34)nn2C)C1` [YZ001052], in experiment [3], the “length of the colorectum” value is “significantly increased”. The “immunosuppressive effect on SRBC-induced delayed type hypersensitivity (right paw thickness)” value in the experiment with SRBC mouse model is recorded as “significant immunosuppressive effects”. Also, in [4] (ELISA, FIG. 4), the “TNF-α level in the alveolar lavage fluid” value is “good inhibitory effect”. In addition, in experiment [4] (FIG. 5), the “number of white blood cells (inflammatory cell infiltrates) in the alveolar lavage fluid” value was “significantly reduce”. In [2], the “swelling of the paws” value was “improved to varying degrees” and the arthritis scores result was “significantly reduced”.
For the compound `C=CC(=O)N1CCc2[nH]nc(-c3ccnc4[nH]ccc34)c2C1` [YZ001065], the results for the IC50 (at JAK3 kinase (setting [5]); in experiment [1]) were 0.7 nM and 26.3 nM, respectively. The “immunosuppressive effect on SRBC-induced delayed type hypersensitivity (right paw thickness)” value in the experiment with SRBC mouse model is reported as “significant immunosuppressive effects”.
For the compound `C=C(F)C(=O)N1Cc2c(-c3ccnc4[nH]ccc34)cnn2C[C@H]1CCS(C)(=O)=O` [YZ001075], the IC50 on JAK3 kinase (setting [5]) turned out to be 1.2 nM; in experiment [1], 31.7 nM.

The values are drawn from US20260158031A1, “AROMATIC HETEROCYCLIC COMPOUND, PHARMACEUTICAL COMPOSITION CONTAINING THE SAME, AND USE THEREOF” (HANG ZHOU YUHONG PHARMATECH CO., LTD., priority 2021, published 2026).
